According to the NIST ThermoML archive (doi:10.1021/je7003929):

Test: xn = mol fraction of the nth substance listed
Conditions: Liquid, Vibrating tube method

c1ccc2sccc2c1 [benzo[b]thiophene] + CCCCCC
Conditions	mass density [kg/m3]
332.9 K, 1028 kPa, x2 = 0.4495	892.5
332.9 K, 2010 kPa, x2 = 0.4495	893.2
332.9 K, 3021 kPa, x2 = 0.4495	894.1
332.9 K, 4018 kPa, x2 = 0.4495	895.3
332.9 K, 5018 kPa, x2 = 0.4495	896.2
332.9 K, 6008 kPa, x2 = 0.4495	897
332.9 K, 7019 kPa, x2 = 0.4495	897.9
332.9 K, 8016 kPa, x2 = 0.4495	898.8
332.9 K, 9023 kPa, x2 = 0.4495	899.8
332.9 K, 10018 kPa, x2 = 0.4495	900.7
332.9 K, 11007 kPa, x2 = 0.4495	901.6
332.9 K, 12010 kPa, x2 = 0.4495	902.4
332.9 K, 13019 kPa, x2 = 0.4495	903.3
332.9 K, 14015 kPa, x2 = 0.4495	904.2
332.9 K, 15019 kPa, x2 = 0.4495	905
332.9 K, 16002 kPa, x2 = 0.4495	905.9
332.9 K, 17014 kPa, x2 = 0.4495	906.7
332.9 K, 18017 kPa, x2 = 0.4495	907.5
332.9 K, 19023 kPa, x2 = 0.4495	908.3
332.9 K, 20028 kPa, x2 = 0.4495	909.1
342.55 K, 1028 kPa, x2 = 0.2588	982.2
342.55 K, 2013 kPa, x2 = 0.2588	983.1
342.55 K, 3013 kPa, x2 = 0.2588	983.8
342.55 K, 4017 kPa, x2 = 0.2588	984.7
342.55 K, 5024 kPa, x2 = 0.2588	985.5
342.55 K, 6012 kPa, x2 = 0.2588	986.3
342.55 K, 7004 kPa, x2 = 0.2588	987.1
342.55 K, 8017 kPa, x2 = 0.2588	987.9
342.55 K, 9012 kPa, x2 = 0.2588	988.7
342.55 K, 10016 kPa, x2 = 0.2588	989.5
342.55 K, 11015 kPa, x2 = 0.2588	990.4
342.55 K, 12022 kPa, x2 = 0.2588	991.2
342.55 K, 13030 kPa, x2 = 0.2588	992
342.55 K, 14011 kPa, x2 = 0.2588	992.8
342.55 K, 15020 kPa, x2 = 0.2588	993.6
342.55 K, 16020 kPa, x2 = 0.2588	994.3
342.55 K, 17017 kPa, x2 = 0.2588	995.1
342.55 K, 18008 kPa, x2 = 0.2588	995.8
342.55 K, 19011 kPa, x2 = 0.2588	996.6
342.55 K, 20013 kPa, x2 = 0.2588	997.4
342.63 K, 1018 kPa, x2 = 0.0629	1085.6
342.63 K, 2039 kPa, x2 = 0.0629	1086.3
342.63 K, 3009 kPa, x2 = 0.0629	1087
342.63 K, 4022 kPa, x2 = 0.0629	1087.8
342.63 K, 5025 kPa, x2 = 0.0629	1088.5
342.63 K, 5925 kPa, x2 = 0.0629	1089.1
342.63 K, 7031 kPa, x2 = 0.0629	1089.9
342.63 K, 8009 kPa, x2 = 0.0629	1090.6
342.63 K, 9007 kPa, x2 = 0.0629	1091.3
342.63 K, 10024 kPa, x2 = 0.0629	1092
342.63 K, 11013 kPa, x2 = 0.0629	1092.7
342.63 K, 12012 kPa, x2 = 0.0629	1093.4
342.63 K, 13000 kPa, x2 = 0.0629	1094.1
342.63 K, 14019 kPa, x2 = 0.0629	1094.8
342.63 K, 15027 kPa, x2 = 0.0629	1095.4
342.63 K, 16019 kPa, x2 = 0.0629	1096.1
342.63 K, 17009 kPa, x2 = 0.0629	1096.8
342.63 K, 18015 kPa, x2 = 0.0629	1097.5
342.63 K, 19019 kPa, x2 = 0.0629	1098.2
342.63 K, 20018 kPa, x2 = 0.0629	1098.8
342.71 K, 1025 kPa, x2 = 0.9432	640.4
342.71 K, 2014 kPa, x2 = 0.9432	641.8
342.71 K, 3011 kPa, x2 = 0.9432	643.3
342.71 K, 4027 kPa, x2 = 0.9432	644.8
342.71 K, 5014 kPa, x2 = 0.9432	646.2
342.71 K, 6027 kPa, x2 = 0.9432	647.6
342.71 K, 7019 kPa, x2 = 0.9432	649
342.71 K, 8015 kPa, x2 = 0.9432	650.3
342.71 K, 9010 kPa, x2 = 0.9432	651.6
342.71 K, 10003 kPa, x2 = 0.9432	652.9
342.71 K, 11017 kPa, x2 = 0.9432	654.2
342.71 K, 12006 kPa, x2 = 0.9432	655.4
342.71 K, 13024 kPa, x2 = 0.9432	656.7
342.71 K, 14021 kPa, x2 = 0.9432	657.8
342.71 K, 15006 kPa, x2 = 0.9432	659
342.71 K, 16015 kPa, x2 = 0.9432	660.2
342.71 K, 17016 kPa, x2 = 0.9432	661.3
342.71 K, 18000 kPa, x2 = 0.9432	662.4
342.71 K, 19034 kPa, x2 = 0.9432	663.6
342.71 K, 20012 kPa, x2 = 0.9432	664.6
342.72 K, 1034 kPa, x2 = 0.7491	734.5
342.72 K, 2000 kPa, x2 = 0.7491	735.8
342.72 K, 3023 kPa, x2 = 0.7491	737
342.72 K, 4016 kPa, x2 = 0.7491	738.2
342.72 K, 5014 kPa, x2 = 0.7491	739.5
342.72 K, 6014 kPa, x2 = 0.7491	740.7
342.72 K, 7019 kPa, x2 = 0.7491	741.8
342.72 K, 8012 kPa, x2 = 0.7491	743
342.72 K, 9010 kPa, x2 = 0.7491	744.1
342.72 K, 10013 kPa, x2 = 0.7491	745.3
342.72 K, 11016 kPa, x2 = 0.7491	746.4
342.72 K, 12016 kPa, x2 = 0.7491	747.5
342.72 K, 13011 kPa, x2 = 0.7491	748.6
342.72 K, 14001 kPa, x2 = 0.7491	749.6
342.72 K, 15003 kPa, x2 = 0.7491	750.7
342.72 K, 16025 kPa, x2 = 0.7491	751.7
342.72 K, 17012 kPa, x2 = 0.7491	752.8
342.72 K, 18018 kPa, x2 = 0.7491	753.8
342.72 K, 19008 kPa, x2 = 0.7491	754.7
342.72 K, 20017 kPa, x2 = 0.7491	755.8
342.79 K, 1022 kPa, x2 = 0.4495	883.3
342.79 K, 2032 kPa, x2 = 0.4495	884.3
342.79 K, 3024 kPa, x2 = 0.4495	885.3
342.79 K, 4029 kPa, x2 = 0.4495	886.4
342.79 K, 5019 kPa, x2 = 0.4495	887.3
342.79 K, 6019 kPa, x2 = 0.4495	888.3
342.79 K, 7035 kPa, x2 = 0.4495	889.3
342.79 K, 8022 kPa, x2 = 0.4495	890.2
342.79 K, 9016 kPa, x2 = 0.4495	891.1
342.79 K, 10010 kPa, x2 = 0.4495	892
342.79 K, 11010 kPa, x2 = 0.4495	893
342.79 K, 12024 kPa, x2 = 0.4495	893.9
342.79 K, 13001 kPa, x2 = 0.4495	894.8
342.79 K, 14017 kPa, x2 = 0.4495	895.7
342.79 K, 15021 kPa, x2 = 0.4495	896.6
342.79 K, 16020 kPa, x2 = 0.4495	897.4
342.79 K, 17009 kPa, x2 = 0.4495	898.3
342.79 K, 18009 kPa, x2 = 0.4495	899.2
342.79 K, 19011 kPa, x2 = 0.4495	900
342.79 K, 20011 kPa, x2 = 0.4495	900.9
352.33 K, 1030 kPa, x2 = 0.2588	973.2
352.33 K, 2012 kPa, x2 = 0.2588	973.9
352.33 K, 3021 kPa, x2 = 0.2588	974.8
352.33 K, 4018 kPa, x2 = 0.2588	975.8
352.33 K, 5020 kPa, x2 = 0.2588	976.6
352.33 K, 6024 kPa, x2 = 0.2588	977.6
352.33 K, 7016 kPa, x2 = 0.2588	978.5
352.33 K, 8000 kPa, x2 = 0.2588	979.3
352.33 K, 9020 kPa, x2 = 0.2588	980.2
352.33 K, 10010 kPa, x2 = 0.2588	981
352.33 K, 11018 kPa, x2 = 0.2588	981.9
352.33 K, 12012 kPa, x2 = 0.2588	982.7
352.33 K, 13013 kPa, x2 = 0.2588	983.5
352.33 K, 14007 kPa, x2 = 0.2588	984.3
352.33 K, 15016 kPa, x2 = 0.2588	985.2
352.33 K, 16012 kPa, x2 = 0.2588	986
352.33 K, 17013 kPa, x2 = 0.2588	986.8
352.33 K, 18003 kPa, x2 = 0.2588	987.6
352.33 K, 19011 kPa, x2 = 0.2588	988.4
352.33 K, 20014 kPa, x2 = 0.2588	989.1
